Converted amounts (≈) assume the structure as drawn. The source made the active and inactive calls. No cut-off for these calls is given here.
What was measured:
Candida albicans [1] = experiment: Antifungal activity against wild-type Candida albicans SC5314 assessed as inhibition of fungal growth measured after 24 hrs by CLSI based microtiter plate analysis; format: functional; conditions: for MIC80: SC5314, read-out: MIC80
[2] = Drug accumulation in wild-type Candida albicans SC5314 at 50 microg/ml incubated for 3 hrs by HPLC analysis; format: ADME; conditions: dose 50 µg/ml
Candida albicans [3] = experiment: microbe, parasite or virus in culture; format: functional; conditions: DSY654, time 24 hrs

| Structure (SMILES) | MIC80 (Candida albicans [1]; Candida albicans) [µg/mL] | Drug uptake [2] | Drug uptake ([2]; BLD = below limit of detection) | other results |
| --- | --- | --- | --- | --- |
| CC(=O)O[C@H]1C[C@@]2(C)[C@@H](C[C@@H](O)[C@H]3[C@@]4(C)CC[C@@H](O)[C@@H](C)[C@@H]4CC[C@@]32C)/C1=C(\CCC=C(C)C)C(=O)OCCCOc1ccc(C(=N)N)cc1 | 16 (≈ 23.1 µM) | Active |  |  |
| CC1(C)[C@@H]2CC[C@@]1(C)[C@@H](OC(=O)CCCOc1ccc(C(=N)N)cc1)C2 | 8 (≈ 22.3 µM) | Active |  |  |
| CC1(C)C2CCC1(C)C(O)C2 (stereo not drawn) [BORNEOL] |  |  | Bld | MIC (Candida albicans [1]; Candida albicans, SC5314): > 256 µg/mL |
| N=C(N)c1ccc(OCCCN2CCN(C(c3ccc(F)cc3)c3ccc(F)cc3)CC2)cc1 | 32 (≈ 68.9 µM) | Active |  |  |
| C=C(C)[C@@H]1CC[C@]2(C(=O)O)CC[C@]3(C)[C@H](CC[C@@H]4[C@@]5(C)CC[C@H](O)C(C)(C)[C@@H]5CC[C@]43C)[C@@H]12 [BETULINIC ACID] |  |  | Bld | MIC (Candida albicans [1]; Candida albicans, SC5314): > 256 µg/mL |
| C[C@@H]1CC[C@@]2(OC1)O[C@H]1C[C@H]3[C@@H]4CC=C5C[C@@H](OC(=O)CCCOc6ccc(C(=N)N)cc6)CC[C@]5(C)[C@H]4CC[C@]3(C)[C@H]1[C@@H]2C | 64 (≈ 103 µM) | Active |  |  |
| N=C(N)c1ccc(OCCCBr)cc1 | > 256 |  |  | MIC80 (Candida albicans [3]): > 256 µg/mL |
| C[C@H]1[C@H](C)CC[C@]2(C(=O)O)CC[C@]3(C)C(=CC[C@@H]4[C@@]5(C)CC[C@H](O)C(C)(C)[C@@H]5CC[C@]43C)[C@H]12 [URSOLIC ACID] |  |  | Bld |  |
| C=C1C(=O)O[C@@]23CC[C@H]4[C@@](C)(CCC[C@@]4(C)C(=O)OCCCOc4ccc(C(=N)N)cc4)[C@@H]2CC[C@]1(O)C3 | 32 (≈ 61 µM) | Active |  |  |
| O=C(OCCOCCO)c1ccccc1Nc1cccc(C(F)(F)F)c1 [ETOFENAMATE] |  |  |  | MIC (Candida albicans [3]): 16 µg/mL (≈ 43.3 µM); MIC (Candida albicans [1]): inactive |
| Fc1ccc(C(c2ccc(F)cc2)N2CCN(C/C=C/c3ccccc3)CC2)cc1 [FLUNARIZINE] |  |  |  | MIC (Candida albicans [3]): 8 µg/mL (≈ 19.8 µM); MIC (Candida albicans [1]): inactive |
| C=C1C(=O)O[C@@]23CC[C@H]4[C@@](C)(CCC[C@@]4(C)C(=O)O)[C@@H]2CC[C@]1(O)C3 |  |  | Bld | MIC (Candida albicans [1]; Candida albicans, SC5314): > 256 µg/mL |
| CC(=O)O[C@H]1C[C@@]2(C)[C@@H](C[C@@H](O)[C@H]3[C@@]4(C)CC[C@@H](O)[C@@H](C)[C@@H]4CC[C@@]32C)/C1=C(\CCC=C(C)C)C(=O)O [FUSIDIC ACID] |  |  | Bld | MIC (Candida albicans [1]; Candida albicans, SC5314): > 256 µg/mL |
| C[C@@]12CC[C@@H]3[C@@](CC[C@H]4[C@@]3(C)CCC[C@@]4(C)C(=O)O)(CC1=O)C2 [ISOSTEVIOL] |  |  | Bld |  |
| CCOC(=O)C1=C(COCCN)NC(C)=C(C(=O)OC)C1c1ccccc1Cl (stereo not drawn) [AMLODIPINE] |  |  | Bld | MIC (Candida albicans [3]): 32 µg/mL (≈ 78.3 µM) |
| COc1ccc2c(CCCI)c3[n+](cc2c1OC)CCc1cc2c(cc1-3)OCO2.[I-] | 64 |  |  | MIC80 (Candida albicans [3]): 16 µg/mL |
| C[C@@H]1CC[C@@]2(OC1)O[C@H]1C[C@H]3[C@@H]4CC=C5C[C@@H](O)CC[C@]5(C)[C@H]4CC[C@]3(C)[C@H]1[C@@H]2C [DISOGENIN] |  |  | Bld | MIC (Candida albicans [1]; Candida albicans, SC5314): > 256 µg/mL |
| C=C(C)[C@@H]1CC[C@]2(C(=O)OCCCOc3ccc(C(=N)N)cc3)CC[C@]3(C)[C@H](CC[C@@H]4[C@@]5(C)CC[C@H](O)C(C)(C)[C@@H]5CC[C@]43C)[C@@H]12 | 64 (≈ 101 µM) | Active |  |  |
| C=C1C(=O)[C@@]23CC[C@H]4[C@@](C)(CCC[C@@]4(C)C(=O)O)[C@@H]2CC[C@]1(O)C3 |  |  | Bld | MIC (Candida albicans [3]): 256 µg/mL (≈ 770 µM); MIC (Candida albicans [1]): inactive |
| CC/C(=C(/CC)c1ccc(O)cc1)c1ccc(O)cc1 [DIETHYLSTILBESTROL] |  |  |  | MIC (Candida albicans [3]): 4 µg/mL (≈ 14.9 µM) |

— ChEMBL document CHEMBL5365543, “Benzamidine Conjugation Converts Expelled Potential Active Agents into Antifungals against Drug-Resistant Fungi” (J Med Chem, 2023)
